In PubChem BioAssay (NCI):
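Each compound was tested at five concentrations against cells in 96-well plates for 48 hours. GI50: concentration for 50% inhibition of growth. TGI is the concentration that stops growth completely.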

Columns and labels:
Experiment in all cases: inhibition of tumour cell growth, NCI panel, 48 h
[1] = system: CAKI-1 renal
[2] = system: HS 578T breast
[3] = system: K-562 leukemia
[4] = system: M14 melanoma
[5] = system: NCI-H226 lung
[6] = system: NCI-H460 lung
[7] = system: SF-539 CNS
[8] = system: SK-MEL-5 melanoma
[9] = system: SNB-75 CNS
[10] = system: BT-549 breast

Row | Compound | TGI [1] [µM] | TGI [2] [µM] | TGI [3] [µM] | TGI [4] [µM] | TGI [5] [µM] | TGI [6] [µM] | TGI [7] [µM] | TGI [8] [µM] | TGI [9] [µM] | TGI [10] [µM] | GI50 [1] [µM] | GI50 [2] [µM] | GI50 [3] [µM] | GI50 [4] [nM] | GI50 [7] [nM] | GI50 [9] [µM]
1 | CCN(CC)C(=O)CCNC(C)Cc1c[nH]c2ccccc12 (centres undefined) | > 100 | > 100 | > 100 | > 100 | > 100 | > 100 | > 100 | > 100 | > 100 |  |  |  |  |  |  | 
2 | CC(C)[Si](CC1=CCCCC12C(=O)N(COCC[Si](C)(C)C)c1ccccc12)(C(C)C)C(C)C (centres undefined) | > 100 | > 100 | > 100 | > 100 | > 100 | > 100 | > 100 | > 100 | > 100 |  |  |  |  |  |  | 
3 | O=c1[nH]nc(-c2ccccc2)c2[nH]c3c(c12)CCCc1ccccc1-3 | > 100 | 38.7 | 94.8 | 36.9 | 37.5 | 60 | 36.1 | 26.5 |  | 47.4 |  |  |  |  |  | 
4 | FC1(F)SC2CCCCCCCCCCC2C1(F)F (centres undefined) | > 100 | > 100 | 35.3 | > 100 | > 100 |  |  | > 100 | > 100 | > 100 |  |  |  |  |  | 
5 | CCOC(=O)C(/C=N/C(N)=S)=C(/O)c1ccccc1 | > 100 |  |  | > 100 | > 100 | > 100 | > 100 | > 100 | > 100 | > 100 |  |  |  |  |  | 
6 | FC(F)(F)c1ccc(N=NN2CCCC2)cc1 | > 100 | > 100 | > 100 | > 100 | > 100 | > 100 | > 100 | > 100 |  | > 100 |  |  |  |  |  | 
7 | COC(=O)/C=C/[C@H]1[C@H](C)N1S(=O)(=O)c1ccc(C)cc1 (some centres undefined) | > 100 | > 100 | > 100 | > 100 | > 100 | > 100 | > 100 | > 100 |  | > 100 |  |  |  |  |  | 
8 | COc1cc(/C=C2\CCCC3=C2N=C2SC=NN2C3c2cc(OC)c(OC)c(OC)c2)cc(OC)c1OC (centres undefined) | > 100 | > 100 | > 100 | 7.1 |  |  | > 100 |  | > 100 |  | 3.43 | 4.85 | 3.08 | 2400 | 2900 | 7.52
9 | COC(=O)c1cc(OCc2cc(OCc3ccc(Br)cc3)cc(OCc3ccc(Br)cc3)c2)cc(OCc2cc(OCc3ccc(Br)cc3)cc(OCc3ccc(Br)cc3)c2)c1 | > 100 |  | > 100 | > 100 | > 100 | > 100 | > 100 | > 100 | > 100 | > 100 |  |  |  |  |  | 
10 | COC(=O)CC(c1ccccc1)C(C#N)(OP1(=O)OC(c2ccccc2)C(C)N1C)c1ccccc1 (centres undefined) | > 100 | > 100 | > 100 | > 100 |  | > 100 |  | 39.8 | > 100 | > 100 |  |  |  |  |  | 
11 | COc1ccc(C2=Nn3c(C)nnc3S/C2=C\c2ccc(-c3ccc([N+](=O)[O-])cc3)o2)cc1 | 29.1 | > 100 | 17.7 | 48.2 | 46.2 | 39.5 | 25.6 | 34.4 |  | 19 |  |  |  |  |  | 
12 | COC(=O)C(Cc1cc(OC)c(OC)c(OC)c1)(NC(=O)c1ccccc1)P(=O)(OC)OC (centres undefined) | > 100 |  | > 100 | > 100 | > 100 | > 100 | > 100 | > 100 | > 100 |  |  |  |  |  |  | 
13 | CC(C)N=C(NC#N)NS(=O)(=O)c1cnccc1NC1CCCCCCC1 | > 100 | > 100 | > 100 | > 100 | > 100 |  |  | > 100 | > 100 | > 100 |  |  |  |  |  | 
14 | O=C(O)c1cc2sc(C(=O)O)cc2s1 | > 100 |  | > 100 | > 100 | > 100 | > 100 | > 100 | > 100 | > 100 |  |  |  |  |  |  | 
15 | C=C(C)[C@H]1C=C[C@@H](OC(C)=O)[C@@]2(COC(C)=O)[C@H](OC(=O)CCC)[C@H]3[C@@H](OC(C)=O)[C@@H](C)C[C@]3(O)C(=O)[C@@](C)(OC(C)=O)[C@H]12 | > 100 | > 100 | > 100 | > 100 | > 100 | > 100 |  | > 100 | > 100 | > 100 |  |  |  |  |  | 
16 | C/C(=N\Nc1nc2ccccc2[nH]1)c1ccc2ccccc2n1 | 1.54 | 35 | 6.72 | 6.47 |  | 10.4 | 20.1 | 4.5 |  | > 100 |  |  |  |  |  | 
17 | CSc1cc(Cl)c(C)cc1S(=O)(=O)NC(=O)NNc1cnc2ccccc2n1 | > 100 | > 100 | > 100 | > 100 | > 100 | > 100 | > 100 | > 100 |  |  |  |  |  |  |  | 
18 | CSc1nc(NC2OC(CO)C(O)C(O)C2O)c(N)c(=O)[nH]1 (centres undefined) |  |  | > 100 |  | > 100 | > 100 | > 100 | > 100 | > 100 |  |  |  |  |  |  | 
19 | [B]C(=O)NC(CC(C)C)C(=O)NC1c2ccsc2C(=O)C1O (centres undefined) (tested in a mixture with another compound) |  | > 100 | > 100 | > 100 | > 100 | > 100 | > 100 | > 100 | > 100 | > 100 |  |  |  |  |  | 
20 | NC(=O)NC(=O)c1cccc(C(=O)NC(N)=O)n1 | > 100 |  | > 100 | > 100 | > 100 | > 100 | > 100 | > 100 |  |  |  |  |  |  |  | 
21 | C[C@H](N)C(=O)Nc1ccc(-c2nc3ccccc3s2)cc1Cl | 23.2 | 49.7 | 36.8 | 19 | 11.2 | 26.2 |  | 29.9 | 34.8 | 36 |  |  |  |  |  | 
22 | O=C(CCCN1CCC(Nc2ccc(F)cc2)(c2nnnn2C2CCCCC2)CC1)c1ccc(F)cc1 |  | 46.3 | > 100 | 32.4 | 36 | > 100 | 30.5 | 42 | 24.7 | 33.1 |  |  |  |  |  | 
23 | O=C(O)Cc1ccc(-n2nnc3c(=O)[nH][nH]c(=O)c32)cc1 | > 100 |  | > 100 | > 100 |  | > 100 |  | > 100 |  | > 100 |  |  |  |  |  | 
